In ChEMBL document CHEMBL1122319, “Substituted (2-phenoxyphenyl)acetic acids with antiinflammatory activity. 1” (J Med Chem, 1983):

Experiments:
Rattus norvegicus [1] = assay: Reduction in paw swelling at 100 mg/kg po dose in rat using adjuvant arthritis test.; assay type: functional
Rattus norvegicus [2] = species: Rattus norvegicus; assay: Potency relative to [2-(2,4-Dichloro-phenoxy)-phenyl]-acetic acid in rat adjuvant arthritis test; assay type: functional

SMILES	Reduction (Rattus norvegicus [1])	Relative potency (Rattus norvegicus [2])
COc1cc(Cl)ccc1Oc1ccc(C)cc1CC(=O)O	23	0.7
Cc1ccc(Oc2ccc(CC(C)C)cc2Cl)c(CC(=O)O)c1	19	0.2
Cc1ccc(Oc2ccc(Cl)c(Cl)c2)c(CC(=O)O)c1	9	–
Cc1ccc(Oc2ccc(C)cc2CC(=O)O)c(Cl)c1	35	0.4
Cc1cc(Oc2ccc(Cl)cc2CC(=O)O)cc(C)c1Cl	23	–
CCCCCCCCc1ccc(Oc2ccc(C)cc2CC(=O)O)c(Cl)c1	13%	–
O=C(O)Cc1cc(Cl)ccc1Oc1ccc(O)cc1Cl	36	–
COc1ccc(Oc2ccc(Cl)cc2CC(=O)O)c(Cl)c1	18	–
CCCCCCc1ccc(Oc2ccc(C)cc2CC(=O)O)c(Cl)c1	5	–
O=C(O)Cc1ccccc1Oc1ccc([N+](=O)[O-])cc1[N+](=O)[O-]	0%	–
Cc1ccc(Oc2ccccc2F)c(CC(=O)O)c1	24	–
O=C(O)Cc1cc(Cl)ccc1Oc1ccccc1F	21	–
O=C(O)Cc1ccccc1Oc1ccc(Br)cc1Br	29	0.8
O=C(O)Cc1ccccc1Oc1ccc(Cl)c(Cl)c1	20	–
CCCCCCCCCCc1ccc(Oc2ccc(C)cc2CC(=O)O)c(Cl)c1	9%	–
O=C(O)C(=O)c1ccccc1Oc1ccc(Cl)cc1Cl	23	0.3
Cc1ccc(Oc2cc(O)c(C)cc2CC(=O)O)c(Cl)c1	12	–
Cc1ccc(Oc2ccccc2C(F)(F)F)c(CC(=O)O)c1	0	–
CC(C(=O)O)c1ccccc1Oc1ccc(Cl)cc1Cl (stereo not drawn)	0	–
Cc1cc(Oc2ccc(Cl)cc2CC(=O)O)c(Cl)cc1Cl	40	0.6
Cc1ccc(Oc2c(Cl)cccc2Cl)c(CC(=O)O)c1	16	–

SMILES	Reduction (Rattus norvegicus [1])	Relative potency (Rattus norvegicus [2])
O=C(O)Cc1ccccc1Oc1ccc(Cl)cc1	0	–
Nc1ccc(Oc2ccccc2CC(=O)O)c(N)c1	0%	–
Cc1ccc(Oc2cc(C)c(Cl)cc2C)c(CC(=O)O)c1	10	–
Cc1ccc(Oc2ccc(Cl)cc2O)c(CC(=O)O)c1	26	–
Cc1ccc(Oc2ccc(Cl)cc2C)c(CC(=O)O)c1	17	–
CCCCc1ccc(Cl)c(Oc2ccc(C)cc2CC(=O)O)c1	5	–
O=C(O)Cc1ccccc1Oc1c(Cl)cc(Cl)cc1Cl	23	–
O=C(O)Cc1ccccc1Oc1cccc(Cl)c1Cl	51	–
Cc1ccc(Oc2ccc(Cl)cc2CC(=O)O)c(C)c1	22	–
Cc1ccc(Oc2cc(C)c(Cl)c(C)c2Cl)c(CC(=O)O)c1	20	–
Cc1ccc(Oc2cc(Cl)ccc2Cl)c(CC(=O)O)c1	32	0.4
Nc1ccc(Oc2ccc(Cl)cc2Cl)c(CC(=O)O)c1	0	–
O=C(O)Cc1cc(Cl)ccc1Oc1cccc(Cl)c1	0	–
O=C(O)Cc1ccccc1Oc1ccccc1C(F)(F)F	0	–
O=C(O)Cc1ccccc1Oc1cc(Cl)c(Cl)cc1Cl	17	–
Cc1ccc(Oc2c(C)cc(Cl)cc2C)c(CC(=O)O)c1	14	0.3
Cc1ccc(Oc2ccccc2CC(=O)O)c(Cl)c1	21	–
O=C(O)c1ccccc1Oc1ccc(Cl)cc1Cl	18	–
Cc1ccc(Oc2ccc(-c3ccccc3)cc2Cl)c(CC(=O)O)c1	23	0.2
CCCc1ccc(Oc2ccc(C)cc2CC(=O)O)c(Cl)c1	27	0.6
Cc1ccc(Oc2ccc(C(C)C)cc2Cl)c(CC(=O)O)c1	30	1.6

SMILES	Reduction (Rattus norvegicus [1])	Relative potency (Rattus norvegicus [2])
Cc1ccc(Oc2ccccc2Cl)c(CC(=O)O)c1	12	–
Cc1ccc(Oc2ccc(C)cc2CC(=O)O)c(C)c1	20	–
Cc1ccc(Oc2cc(C)c(Cl)cc2Cl)c(CC(=O)O)c1	45	0.4
Cc1cc(Oc2ccccc2CC(=O)O)c(Cl)cc1Cl	19	–
CCc1ccc(Oc2ccc(C)cc2CC(=O)O)c(CC)c1	8	–
CCCCCCCCCCCc1ccc(Oc2ccc(C)cc2CC(=O)O)c(Cl)c1	14%	–
O=C(O)Cc1ccccc1Oc1ccccc1	0	–
Cc1ccc(Oc2cccc(Cl)c2C)c(CC(=O)O)c1	20	0.3
Cc1ccc(Oc2cccc(Cl)c2Cl)c(CC(=O)O)c1	13	–
Cc1ccc(Oc2ccc(Cl)c(C)c2)c(CC(=O)O)c1	9	–
Cc1ccc(Oc2cc(C)c(Cl)cc2C(C)C)c(CC(=O)O)c1	3	–
O=C(O)Cc1cc(Cl)ccc1Oc1ccccc1Cl	0	–
Cc1cc(Oc2ccc(Cl)cc2CC(=O)O)c(Cl)c(C)c1Cl	41	1
O=C(O)Cc1cc([N+](=O)[O-])ccc1Oc1ccc(Cl)cc1Cl	9%	–
O=C(O)Cc1cc(Cl)ccc1Oc1ccccc1	0	–
COc1ccc(Oc2ccc(Cl)cc2Cl)c(CC(=O)O)c1	3	–
O=C(O)Cc1cc(Cl)ccc1Oc1ccc(Cl)cc1Cl	37	1
Cc1cc(Cl)ccc1Oc1ccc(Cl)cc1CC(=O)O	7	–
Cc1ccc(Oc2ccc(Cl)cc2CC(=O)O)c(Cl)c1	10	–
O=C(O)Cc1ccc(Oc2ccc(Cl)cc2Cl)cc1	2	–
Cc1ccc(Oc2cc(C)c(Cl)c(C)c2)c(CC(=O)O)c1	5	0.7

SMILES	Reduction (Rattus norvegicus [1])	Relative potency (Rattus norvegicus [2])
Cc1cc(Cl)c(Oc2ccc(Cl)cc2CC(=O)O)cc1C	22	–
O=C(O)Cc1cc([N+](=O)[O-])c([N+](=O)[O-])cc1Oc1ccc(Cl)cc1Cl	8%	–
CCCCCCCCCc1ccc(Oc2ccc(C)cc2CC(=O)O)c(Cl)c1	8%	–
CCCCOc1ccc(CC(=O)O)c(Oc2ccc(C)cc2Cl)c1	0	–
Cc1ccc(Oc2ccccc2CC(=O)O)c(C)c1	20	–
Cc1cc(Cl)ccc1Oc1ccccc1CC(=O)O	0	–
Cc1ccc(Oc2ccc(O)cc2CC(=O)O)c(Cl)c1	10	–
Cc1ccc(Oc2cc(C(F)(F)F)ccc2Cl)c(CC(=O)O)c1	29	3
O=C(O)Cc1ccccc1Oc1ccc([N+](=O)[O-])cc1Cl	19%	–
Cc1ccc(Oc2ccc(N)cc2CC(=O)O)c(Cl)c1	3	–
O=C(O)Cc1cc(Cl)ccc1Oc1ccc(Cl)cc1	21	–
Cc1ccc(Oc2c(C)cccc2Cl)c(CC(=O)O)c1	26	0.5
CCOC(=O)Cc1ccccc1Oc1ccc(Cl)cc1Cl	34	0.5
O=C(O)Cc1ccccc1Oc1c(Cl)cccc1Cl	20	–
CN(C)c1ccc(Oc2ccc(Cl)cc2Cl)c(CC(=O)O)c1	5	–
O=C(O)Cc1ccccc1Oc1cc(Cl)ccc1Cl	18	–
O=C(O)Cc1cc(Cl)ccc1Oc1cc(Cl)ccc1Cl	40	1
Cc1ccc(Oc2ccc(C(F)(F)F)cc2CC(=O)O)c(Cl)c1	0	–
O=C(O)CCc1ccccc1Oc1ccc(Cl)cc1Cl	0	–
O=C(O)Cc1ccccc1Oc1ccc(Cl)cc1[N+](=O)[O-]	4%	–
